Results on 17 compounds are retold here after patent publication US6867226B2, “Serotonin 5-HT3 receptor partial activator” (Meiji Seika Kaisha, Ltd., priority 1996, dated 2005).

The target of data set [1] is T1, serotonin 5-HT3 receptor (Cavia porcellus, UniProt O70212).
T1 construct: Longitudinal muscle samples of about 20 mm were prepared from the ileum of Hartley male guinea pigs; from tissue; host or cells: guinea pig (Hartley, male) ileum longitudinal muscle
T1 sequence (O70212 20-490): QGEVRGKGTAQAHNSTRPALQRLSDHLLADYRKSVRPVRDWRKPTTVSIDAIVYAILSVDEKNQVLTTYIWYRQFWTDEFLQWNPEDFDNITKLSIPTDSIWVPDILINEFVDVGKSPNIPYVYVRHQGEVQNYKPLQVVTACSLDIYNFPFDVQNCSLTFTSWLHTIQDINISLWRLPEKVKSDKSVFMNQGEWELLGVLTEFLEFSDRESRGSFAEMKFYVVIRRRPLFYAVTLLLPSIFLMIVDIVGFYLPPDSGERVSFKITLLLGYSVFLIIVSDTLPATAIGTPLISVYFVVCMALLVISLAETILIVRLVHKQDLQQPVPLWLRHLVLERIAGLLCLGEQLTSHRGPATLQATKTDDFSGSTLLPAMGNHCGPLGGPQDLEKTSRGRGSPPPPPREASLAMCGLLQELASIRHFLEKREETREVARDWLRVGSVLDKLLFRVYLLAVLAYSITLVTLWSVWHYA
Briefly: Serotonin 5-HT3 receptor antagonism, inhibition of 5-HT-induced contraction of guinea pig ileum longitudinal muscle. The data set is classed as cell-based. The following applies: inhibition ratio of contraction by 10 μM serotonin 5-HT after treatment with test compound 10 μM; Hartley guinea pig ileum. Here is the method: (§1) Of the novel and known benzoxazole compounds according to the present invention, typical compounds and the compounds disclosed in JP-A-6-345744, namely 5-methoxy-2-(4-methyl-1-piperazinyl)benzoxazole (A) and 2-(4-methyl-1-piperazinyl)naphtho[2,3-d]oxazole (B), were measured for their serotonin 5-HT3 receptor antagonism and serotonin 5-HT3 receptor activating action by the following method, with the results shown in Table 1. Test compounds of the present invention are shown by the Inventive Example numbers.
(§2) Longitudinal muscle samples of about 20 mm were prepared from the ileum of Hartley male guinea pigs (500 to 800 g). Each of the thus prepared samples was hung down in a Magnus tube with a resting tension of about 0.5 g to measure the isometric contraction reaction. Serotonin 5-HT was applied with a concentration of from 0.1 to 30 μM to the sample which has been subjected twice in advance to 1 hour of treatment with 0.3 μM serotonin 5-HT to effect desensitization of serotonin 5-HT4 receptor.
The i.a. value was expressed as the ratio of the maximum reaction of each compound when the maximum contraction reaction obtained by 10 μM of serotonin 5-HT was defined as 1. The pD2 value was. expressed as the negative logarithmic value of concentration (molar concentration) by which 50% of the maximum contraction reaction of each test compound can be obtained. […]

In data set [2] the target is T1, serotonin 5-HT3 receptor. Description: 5-HT3 receptor activating action test, isometric contraction of guinea pig ileum longitudinal muscle. The class given is cell-based. The following applies: for serotonin 5-HT3 receptor activating action (in words): guinea pig ileum contraction, summary of Table 1; for EC50: negative logarithm of molar concentration giving 50% of the compound's maximum contraction, read-out: Activation Action pD2 (converted); for EC50 / Activation Action i.a.: guinea pig ileum; for Activation Action i.a.: ratio of maximum reaction of compound to maximum contraction by 10 μM serotonin 5-HT defined as 1, 5-HT4 receptor desensitized. Here is the method: 5-HT3 Receptor Activating Action Test
as §1, §2
The i.a. value was expressed as the ratio of the maximum reaction of each compound when the maximum contraction reaction obtained by 10 μM of serotonin 5-HT was defined as 1. The pD2 value was. expressed as the negative logarithmic value of concentration (molar concentration) by which 50% of the maximum contraction reaction of each test compound can be obtained. Also, antagonism of each test compound against the serotonin 5-HT3 receptor was calculated as the inhibition ratio of the contraction obtained by applying 10 μM of serotonin 5-HT (manufactured by Sigma) to a sample which has been treated with […] of each test sample to the contraction obtained by applying 10 μM of serotonin 5-HT to the sample before treatment.

The test system of another data set is mice. Description: Toxicity test, oral administration to mice. The data set is classed as in vivo. The following applies: dose of 300 mg/kg, dissolved in water, five-week-old male mice (5 animals).

By inhibition is commonly meant the percentage by which the read-out fell short of the control. On to `c1ccc2oc(N3CCNCC3)nc2c1` [Example 14, 2-(1-Piperazinyl)benzoxazole], for which the inhibition at 10 µM on serotonin 5-HT3 receptor [1] was found to be 75%.
In the case of `COc1ccc2oc(N3CCN(C)CC3)nc2c1` [A, 5-methoxy-2-(4-methyl-1-piperazinyl)benzoxazole, reference compound], the “serotonin 5-HT3 receptor activating action (in words)” value at serotonin 5-HT3 receptor [2] was “does not have serotonin 5-HT3 receptor activating action”. In addition, at serotonin 5-HT3 receptor [1], the inhibition at 10 µM amounted to 34%.
For `CN1CCN(c2nc3cc4ccccc4cc3o2)CC1` [B, 2-(4-methyl-1-piperazinyl)naphtho[2,3-d]oxazole, reference compound], on serotonin 5-HT3 receptor [2], the “serotonin 5-HT3 receptor activating action (in words)” value was “weak in comparison with the compounds of the present invention”, the EC50 was 3980 nM and the “Activation Action i.a.” value is recorded as 0.45. Besides, the inhibition at 10 µM at serotonin 5-HT3 receptor [1] amounted to 85%.
Consider `Nc1cc2oc(N3CCNCC3)nc2cc1Cl` [Example 10, 6-Amino-5-chloro-2-(1-piperazinyl)benzoxazole], for which, on serotonin 5-HT3 receptor [2], the EC50 is 676 nM and the “Activation Action i.a.” value turned out to be 0.69. Further, the inhibition at 10 µM on serotonin 5-HT3 receptor [1] was 88%.
On the same counts, the results for `C=CC[N+]1(C)CCN(c2nc3cc(Cl)c(N)cc3o2)CC1.[Br-]` [Example 7, 1-Allyl-1-methyl-4-(6-amino-5-chlorobenzoxazol-2-yl)piperazinium bromide] are 316 nM, 0.94 and 67%.
Regarding `CN1CCCN(c2nc3c(ccc4ccccc43)o2)CC1` [Example 40, 2-(4-Methyl-1-homopiperazinyl)naphtho[1,2-d]oxazole], on serotonin 5-HT3 receptor [2], the EC50 is 79.4 nM and the “Activation Action i.a.” value worked out at 0.21. On serotonin 5-HT3 receptor [1], the inhibition at 10 µM amounted to 89%.
The matching figures for `Cc1ccc2oc(C3CCNCC3)nc2c1` [Example 16, 2-(4-Piperidyl)-5-methylbenzoxazole]: 617 nM, 0.24 and 82%.
On the same counts, the results for `Cc1cc(Cl)cc2nc(N3CCN(C)CC3)oc12` [Example 31, 5-Chloro-7-methyl-2-(4-methyl-1-piperazinyl)benzoxazole] are 200 nM, 0.24 and 85%.
The matching figures for `CN1CCN(c2nc3c(ccc4ccccc43)o2)CC1` [Example 21, 2-(4-Methyl-1-piperazinyl)naphtho[1,2-d]oxazole]: 501 nM, 0.26 and 85%.
Take `CN1CCN(c2nc3cc(Cl)c(N)cc3o2)CC1` [Example 5, 6-Amino-5-chloro-2-(4-methyl-1-piperazinyl)benzoxazole]: at serotonin 5-HT3 receptor [2], the EC50 was 676 nM and the “Activation Action i.a.” value is 0.59. Also, the inhibition at 10 µM on serotonin 5-HT3 receptor [1] is 95%.
On to `Cc1cc(Cl)cc2nc(N3CCCN(C)CC3)oc12` [Example 37, 5-Chloro-7-methyl-2-(4-methyl-1-homopiperazinyl)benzoxazole], for which, at serotonin 5-HT3 receptor [2], the EC50 was 20 nM and the “Activation Action i.a.” value came to 0.15. The inhibition at 10 µM on serotonin 5-HT3 receptor [1] was determined as 98%.
With `Cc1cc(C)c2oc(N3CCNCC3)nc2c1` [Example 13, 5,7-Dimethyl-2-(1-piperazinyl)benzoxazole], on serotonin 5-HT3 receptor [2], the EC50 is 100 nM and the “Activation Action i.a.” value was determined as 0.18. Besides, the mortality entry in the data set with mice is “No mortal case”. Further, at serotonin 5-HT3 receptor [1], the inhibition at 10 µM came out at 100%.
In the case of `CN1CCN(c2nc3cc(Cl)ccc3o2)CC1` [Example 1, 5-Chloro-2-(4-methyl-1-piperazinyl)benzoxazole], on serotonin 5-HT3 receptor [2], the EC50 is 398 nM and the “Activation Action i.a.” value is listed as 0.55. Besides, at serotonin 5-HT3 receptor [1], the inhibition at 10 µM came to 92%.
The matching figures for `Cc1cc(C)c2oc(N3CCCN(C)CC3)nc2c1` [Example 36, 5,7-Dimethyl-2-(4-methyl-1-homopiperazinyl)benzoxazole]: 63.1 nM, 0.28 and 96%.
The matching figures for `C=CC[N+]1(C)CCN(c2nc3cc(C)ccc3o2)CC1.[Br-]` [Example 25, 1-Allyl-1-methyl-4-(5-methylbenzoxazol-2-yl)piperazinium bromide]: 708 nM, 0.79 and 86%.
Consider `C=CC[N+]1(C)CCN(c2nc3cccc(C)c3o2)CC1.[Br-]` [Example 28, 1-Allyl-1-methyl-4-(7-methylbenzoxazol-2-yl)piperazinium bromide], for which, in the data set on mice, the mortality entry is listed as “No mortal case”.
On to `C=CC[N+]1(C)CCN(c2nc3cc(Cl)ccc3o2)CC1` [Example 2], for which, on serotonin 5-HT3 receptor [2], the EC50 is 224 nM and the “Activation Action i.a.” value is given as 0.57. The inhibition at 10 µM on serotonin 5-HT3 receptor [1] was determined as 90%.
